Results published in patent publication US8598114B2, “Antimicrobial compounds” (priority 2007, dated 2013).

Columns and labels:
Type in all cases: cell-based
Aspergillus niger = assay: MIC, CLSI microbroth dilution (filamentous fungi); parameters: unit not given beside the values; conditions: Aspergillus niger - G.R. Micro collection
Description: (§1) M38-A Vol. 22 No. 16 Reference Method for Broth Dilution Antifungal Susceptibility Testing of Filamentous Fungi; Approved Standard.
(§2) Yeast and filamentous fungal MIC were performed in MOPS buffered RPMI 1640 medium (MOPS buffer obtained from Sigma Aldrich Ltd., RPMI 1640 obtained from Invitrogen Ltd, Paisley, Scotland). The yeast inocula were in the range 7.5×10^2-4×10^3 CFU/mL and the filamentous fungi approximately 8×10^3-1×10^5CFU/mL

[1] = tested on: Trichophyton interdigitale; assay: MIC, CLSI microbroth dilution (filamentous fungi); parameters: unit not given beside the values; conditions: Trichophyton interdigitale - G.R. Micro collection
Description: as §1, §2

Listeria monocytogenes = assay: MIC, CLSI microbroth dilution (aerobic bacteria); parameters: unit not given beside the values; conditions: Listeria monocytogenes - antibiotic-susceptible clinical isolate
Excerpt: (§3) Cation-adjusted Mueller-Hinton broth (Oxoid Ltd., Basingstoke, UK and Trek Diagnostic Systems Ltd., East Grinstead, UK) (supplemented with 5% laked horse blood for Streptococcus spp., Corynebacterium jeikeium and Listeria monocytogenes) was used for aerobic bacteria, with an initial inoculum of approximately 10^5 colony-forming units (CFU)/mL.

[2] = tested on: Staphylococcus epidermidis; assay: MIC, CLSI microbroth dilution (aerobic bacteria); parameters: unit not given beside the values
Excerpt: as §3

Streptococcus mitis = assay: MIC, CLSI microbroth dilution (aerobic bacteria); parameters: unit not given beside the values
Excerpt: as §3

Streptococcus agalactiae = assay: MIC, CLSI microbroth dilution (aerobic bacteria); parameters: unit not given beside the values
Excerpt: as §3

Moraxella catarrhalis = assay: MIC, CLSI microbroth dilution (aerobic bacteria); parameters: unit not given beside the values
Excerpt: as §3

Morganella morganii = assay: MIC, CLSI microbroth dilution (aerobic bacteria); parameters: unit not given beside the values; conditions: Morganella morganii - multi-drug resistant clinical isolate
Excerpt: as §3

Streptococcus pyogenes = assay: MIC, CLSI microbroth dilution (aerobic bacteria); parameters: unit not given beside the values
Excerpt: as §3

Streptococcus pneumoniae = assay: MIC, CLSI microbroth dilution (aerobic bacteria); parameters: unit not given beside the values
Excerpt: as §3

[3] = tested on: Streptococcus constellatus; assay: MIC, CLSI microbroth dilution (aerobic bacteria); parameters: unit not given beside the values
Excerpt: as §3

Group G Streptococcus = assay: MIC, CLSI microbroth dilution (aerobic bacteria); parameters: unit not given beside the values
Excerpt: as §3

[4] = tested on: Staphylococcus saprophyticus; assay: MIC, CLSI microbroth dilution (aerobic bacteria); parameters: unit not given beside the values; conditions: Staphylococcus saprophyticus - antibiotic susceptible clinical isolate
Excerpt: as §3

Streptococcus sanguis = assay: MIC, CLSI microbroth dilution (aerobic bacteria); parameters: unit not given beside the values
Excerpt: as §3

Salmonella sp = assay: MIC, CLSI microbroth dilution (aerobic bacteria); parameters: unit not given beside the values
Excerpt: as §3

Enterobacter sp = assay: MIC, CLSI microbroth dilution (aerobic bacteria); parameters: unit not given beside the values
Excerpt: as §3

Streptococcus bovis = assay: MIC, CLSI microbroth dilution (aerobic bacteria); parameters: unit not given beside the values
Excerpt: as §3

[5] = tested on: Stenotrophomonas maltophilia; assay: MIC, CLSI microbroth dilution (aerobic bacteria); parameters: unit not given beside the values; conditions: Stenotrophomonas maltophilia - antibiotic-susceptible clinical isolate
Excerpt: as §3

Streptococcus oralis = assay: MIC, CLSI microbroth dilution (aerobic bacteria); parameters: unit not given beside the values
Excerpt: as §3

Shigella sp = assay: MIC, CLSI microbroth dilution (aerobic bacteria); parameters: unit not given beside the values; conditions: Shigella sp - antibiotic-susceptible clinical isolate
Excerpt: as §3

Group C Streptococcus = assay: MIC, CLSI microbroth dilution (aerobic bacteria); parameters: unit not given beside the values
Excerpt: as §3

Klebsiella aerogenes = assay: MIC, CLSI microbroth dilution (aerobic bacteria); parameters: unit not given beside the values
Excerpt: as §3

Microsporum canis = assay: MIC, CLSI microbroth dilution (filamentous fungi); conditions: Microsporum canis - G.R. Micro collection
Description: as §1, §2

Bacteroides fragilis = assay: MIC, CLSI microbroth dilution (anaerobic bacteria); parameters: unit not given here; conditions: Bacteroides fragilis - ATCC 25285, SBB (Table 2)
Clostridium perfringens = Clostridium perfringens - antibiotic-susceptible clinical isolate

For `N=C(N)NCCCC(N)C(=O)NC(Cc1ccc(-c2ccc3ccccc3c2)cc1)C(=O)NC(CCCNC(=N)N)C(=O)NCCc1ccccc1` (stereo not shown) [Compound 1], the MIC (Aspergillus niger) was 4, the MIC [1] was 8 and the MIC (Listeria monocytogenes) was 32. For the same molecule, the MIC ([2]; Staphylococcus epidermidis antibiotic susceptible clinical isolate) was 16, the MIC ([2]; Staphylococcus epidermidis methicillin-resistant clinical isolate) was 2 and the MIC (Streptococcus mitis; Streptococcus mitis - antibiotic-susceptible clinical isolate) was 64. The MIC (Streptococcus mitis; Streptococcus mitis - macrolide-resistant clinical isolate) was “≧128”, the MIC (Streptococcus agalactiae; Streptococcus agalactiae - antibiotic-susceptible clinical isolate) was 16 and the MIC (Streptococcus agalactiae; Streptococcus agalactiae - macrolide-resistant clinical isolate) was 32. The MIC (Moraxella catarrhalis; Moraxella catarrhalis - reduced fluoroquinolone susceptibility clinical) was 8, the MIC (Moraxella catarrhalis; Moraxella catarrhalis - β-lactamase positive clinical isolate) was 4 and the MIC (Morganella morganii) was “≧128”. The MIC (Streptococcus pyogenes; Streptococcus pyogenes - Macrolide (M-type) resistance clinical isolate) was 32, the MIC (Streptococcus pyogenes; Streptococcus pyogenes - Macrolide (MLS) resistant clinical isolate) was 32 and the MIC (Streptococcus pneumoniae; Streptococcus pneumoniae - ATCC 49619 antibiotic-susceptible control) was 32. For the same molecule, the MIC (Streptococcus pneumoniae; Streptococcus pneumoniae - multi-drug resistant clinical isolate) was 64, the MIC (Streptococcus pneumoniae; Streptococcus pneumoniae - penicillin-resistant clinical isolate) was 32 and the MIC (Streptococcus pneumoniae; Streptococcus pneumoniae - penicillin-susceptible clinical isolate) was 64. The MIC (Streptococcus pneumoniae; Streptococcus pneumoniae -penicillin-intermediate clinical isolate) was 32, the MIC ([3]; Streptococcus constellatus - antibiotic-susceptible clinical isolate) was 64 and the MIC ([3]; Streptococcus constellatus - macrolide-resistant clinical isolate) was 64. For the same molecule, the MIC (Group G Streptococcus; Group G Streptococcus - antibiotic-susceptible clinical isolate) was 32, the MIC (Group G Streptococcus; Group G Streptococcus - macrolide-resistant clinical isolate) was 32 and the MIC [4] was 1. The MIC (Streptococcus sanguis; Streptococcus sanguis - antibiotic-susceptible clinical isolate) was 64, the MIC (Streptococcus sanguis; Streptococcus sanguis - macrolide-resistant clinical isolate) was 32 and the MIC (Salmonella sp; Salmonella sp - antibiotic-susceptible clinical isolate) was 16. It also gave an MIC (Salmonella sp; Salmonella sp - multi-drug resistant clinical isolate) of 16, an MIC (Enterobacter sp; Enterobacter sp - antibiotic-susceptible clinical isolate) of 32 and an MIC (Enterobacter sp; Enterobacter sp - multi-drug resistant clinical isolate) of 64. For the same molecule, the MIC (Streptococcus bovis; Streptococcus bovis - antibiotic-susceptible clinical isolate) was 64, the MIC (Streptococcus bovis; Streptococcus bovis - macrolide-resistant clinical isolate) was 8 and the MIC [5] was 64. It also gave an MIC (Streptococcus oralis; Streptococcus oralis - antibiotic-susceptible clinical isolate) of 64, an MIC (Streptococcus oralis; Streptococcus oralis - macrolide-resistant clinical isolate) of 32 and an MIC (Shigella sp) of 32. The MIC (Group C Streptococcus; Group C Streptococcus - antibiotic-susceptible clinical isolate) was 32, the MIC (Group C Streptococcus; Group C Streptococcus - macrolide-resistant clinical isolate) was 64 and the MIC (Klebsiella aerogenes; Klebsiella aerogenes - multi-drug resistant clinical isolate) was 64. It also gave an MIC (Klebsiella aerogenes; Klebsiella aerogenes NCTC11228 - antibiotic-susceptible type strain) of 32, an MIC (Microsporum canis) of 8 and an MIC (Bacteroides fragilis) of 64. For the same molecule, the MIC (Clostridium perfringens) was “≧128”.
